# Calls of active or inactive are those of the source.
# Key:
# [1] = P. falciparum late gametocyte killing, dose response, luminescence (AID 1117278); type: functional, cell-based;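 note: gametocytes exposed to compound for 24 hours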
# [2] = Jurkat T cell cytotoxicity, dose response, cytotoxicity control for P. falciparum gametocyte viability project, luminescence (AID 1117277); type: functional, cell-based;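 note: potency reflects loss of cellular ATP meaning fewer viable cells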
# [3] = target: Mitogen-activated protein kinase 10 (Homo sapiens, UniProt P53779); assay: Dose response biochemical screening assay for inhibitors of c-Jun N-Terminal Kinase 3 (JNK3). [Related pubchem assays: 746 ]
# Sequence of Mitogen-activated protein kinase 10 (P53779 whole entry): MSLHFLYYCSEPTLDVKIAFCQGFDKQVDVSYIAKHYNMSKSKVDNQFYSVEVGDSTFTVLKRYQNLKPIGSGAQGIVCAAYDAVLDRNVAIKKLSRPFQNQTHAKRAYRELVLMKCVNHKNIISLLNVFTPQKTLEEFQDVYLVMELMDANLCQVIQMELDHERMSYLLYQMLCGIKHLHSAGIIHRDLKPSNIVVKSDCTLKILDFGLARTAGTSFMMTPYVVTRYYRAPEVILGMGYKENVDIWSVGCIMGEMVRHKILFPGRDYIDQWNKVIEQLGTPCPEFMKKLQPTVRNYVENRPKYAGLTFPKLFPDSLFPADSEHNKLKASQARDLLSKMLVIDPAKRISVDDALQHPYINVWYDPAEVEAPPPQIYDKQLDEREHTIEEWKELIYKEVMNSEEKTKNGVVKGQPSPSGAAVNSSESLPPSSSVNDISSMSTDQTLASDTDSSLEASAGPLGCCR
# [4] = THP-1 cell cytotoxicity, dose response, cytotoxicity control for Vif-APOBEC3G degradation inhibitor project, THP-1 cells (AID 1117359); type: functional; settings: Human immunodeficiency virus 1, THP-1
# [5] = target: E3 ubiquitin-protein ligase Mdm2 (Homo sapiens, UniProt Q00987); assay: enhancers of MDM2-luciferase reporter signal, concentration-effect titration, project on inhibitors of MDM2 ubiquitin ligase, cellular assay, luminescent readout, 384-well plate format (AID 1394); type: functional;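 note: MDM2 E3 inhibitors raise luminescence so EC50 is for signal enhancement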
# Sequence of E3 ubiquitin-protein ligase Mdm2 (Q00987 whole entry): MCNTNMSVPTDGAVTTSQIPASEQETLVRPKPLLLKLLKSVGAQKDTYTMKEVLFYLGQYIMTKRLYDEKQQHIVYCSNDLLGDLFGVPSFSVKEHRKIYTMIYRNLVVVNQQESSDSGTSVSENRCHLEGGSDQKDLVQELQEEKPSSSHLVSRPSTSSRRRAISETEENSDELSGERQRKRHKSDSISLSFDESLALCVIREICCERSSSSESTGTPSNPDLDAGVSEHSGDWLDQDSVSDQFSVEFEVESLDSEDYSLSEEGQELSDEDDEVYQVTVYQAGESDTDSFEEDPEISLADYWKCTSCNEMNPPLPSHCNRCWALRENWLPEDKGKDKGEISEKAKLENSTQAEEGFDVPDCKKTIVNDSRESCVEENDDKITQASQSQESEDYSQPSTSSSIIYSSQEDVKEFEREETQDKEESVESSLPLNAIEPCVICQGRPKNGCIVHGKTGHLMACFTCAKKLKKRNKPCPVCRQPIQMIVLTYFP
# [6] = system: Vero; assay: cells; type: functional; settings: Chlorocebus sabaeus
# [7] = P. falciparum Dd2 growth inhibitors, dose response, SYBR Green, cherry-picked samples (AID 1159567); type: functional, cell-based
# [8] = HepG2 cell cytotoxicity, dose response, cytotoxicity control, cherry-picked samples (AID 1159577); type: functional, cell-based
# [9] = P. falciparum 3D7-ScDHODH growth inhibitors, dose response, SYBR Green, dry powder samples (AID 1159570); type: functional, cell-based;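 note: parasite growth measured after 72 hours of compound exposure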
# [10] = HepG2 cell cytotoxicity, dose response, cytotoxicity control, plate reader, dry powder samples (AID 1159569); type: functional, cell-based;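 note: inhibitor potency with signal falling toward the positive control level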
# [11] = P. falciparum Dd2 growth inhibitors, dose response, SYBR Green, dry powder samples (AID 1159566); type: functional, cell-based;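 note: potency for growth inhibition with lower SYBR green DNA signal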
# [12] = P. falciparum ATP4 D1247Y mutant growth inhibitors, dose response, NITD609-resistant line, SYBR Green, dry powder (AID 1159571); type: functional, cell-based;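 note: parasites synchronized at ring stage by sorbitol before testing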
# [13] = HeLa 2N DNA content increase, dose response, cell-based, IC50 (AID 1117349); type: functional
# [14] = Concentration-dependent survival of SW480 colon cancer line, luminescence detection with CellTiter-Glo, half-maximal inhibitory concentration (AID 1117338); type: functional
# [15] = RKO cell viability reduction, dose response, CellTiter-Glo luminescence (AID 1117322); type: functional
# [16] = cytotoxicity toward HCT116 cells – cell-based, CellTiter-Glo luminescence, IC50, dose response (AID 1117332); type: functional; settings: HCT-116
# [17] = SNU-C1 cell viability reduction, dose response, CellTiter-Glo luminescence (AID 1117323); type: functional, cell-based
# [18] = cytotoxicity toward Colo320 cells – cell-based, CellTiter-Glo luminescence, IC50, dose response (AID 1117334); type: functional; settings: COLO 320
# [19] = HeLa 4N DNA content increase, dose response, cell-based, IC50 (AID 1117351); type: functional
# [20] = cytotoxicity toward HT-29 cells – cell-based, CellTiter-Glo luminescence, IC50, dose response (AID 1117330); type: functional
# [21] = CellTiter-Glo luminescent dose response of DLD-1 viability loss (AID 1117352); type: functional
# [22] = HCT116 cell viability decrease, GSK3B pretreatment – CellTiter-Glo, IC50, dose response (AID 1117339); type: functional; settings: HCT-116
# [23] = target: T1, Apoptotic protease-activating factor 1 (Homo sapiens, UniProt O14727); type: functional
# T1 sequence (O14727 whole entry): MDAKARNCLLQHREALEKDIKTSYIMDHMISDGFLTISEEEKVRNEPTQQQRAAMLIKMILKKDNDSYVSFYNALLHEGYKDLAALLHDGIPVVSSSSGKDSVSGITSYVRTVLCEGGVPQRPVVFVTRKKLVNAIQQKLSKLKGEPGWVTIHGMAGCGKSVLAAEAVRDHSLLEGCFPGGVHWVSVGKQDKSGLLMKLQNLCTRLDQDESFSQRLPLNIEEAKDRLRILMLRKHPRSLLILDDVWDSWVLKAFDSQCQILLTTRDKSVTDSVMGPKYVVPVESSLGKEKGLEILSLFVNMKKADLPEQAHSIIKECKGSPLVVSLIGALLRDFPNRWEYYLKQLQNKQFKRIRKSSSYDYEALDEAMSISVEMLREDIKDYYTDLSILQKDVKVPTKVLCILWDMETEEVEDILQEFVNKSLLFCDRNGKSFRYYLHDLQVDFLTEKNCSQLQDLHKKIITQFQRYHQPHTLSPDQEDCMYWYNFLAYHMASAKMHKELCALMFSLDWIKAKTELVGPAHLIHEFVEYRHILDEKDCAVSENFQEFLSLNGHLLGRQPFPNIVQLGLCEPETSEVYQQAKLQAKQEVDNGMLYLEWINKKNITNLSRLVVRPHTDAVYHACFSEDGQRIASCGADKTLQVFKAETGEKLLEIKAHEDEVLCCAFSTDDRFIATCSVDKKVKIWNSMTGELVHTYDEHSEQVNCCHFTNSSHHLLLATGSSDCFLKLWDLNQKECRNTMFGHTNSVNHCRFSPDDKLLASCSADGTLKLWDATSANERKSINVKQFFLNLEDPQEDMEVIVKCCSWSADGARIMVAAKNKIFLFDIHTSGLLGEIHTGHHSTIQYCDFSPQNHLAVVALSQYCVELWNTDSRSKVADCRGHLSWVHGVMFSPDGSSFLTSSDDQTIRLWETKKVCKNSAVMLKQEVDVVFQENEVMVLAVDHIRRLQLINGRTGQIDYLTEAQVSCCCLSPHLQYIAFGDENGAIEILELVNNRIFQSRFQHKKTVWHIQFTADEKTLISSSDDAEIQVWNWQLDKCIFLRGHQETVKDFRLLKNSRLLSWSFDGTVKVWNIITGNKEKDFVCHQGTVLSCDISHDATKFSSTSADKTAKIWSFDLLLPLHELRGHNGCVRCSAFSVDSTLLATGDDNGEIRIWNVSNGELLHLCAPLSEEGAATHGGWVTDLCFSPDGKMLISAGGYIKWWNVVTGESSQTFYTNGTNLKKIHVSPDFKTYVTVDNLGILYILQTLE
# [24] = target: Tyrosyl-DNA phosphodiesterase 2 (Homo sapiens, UniProt O95551); assay: human TDP2 enzyme inhibitors, dose response, biochemical, epi absorbance, IC50 (AID 743297)
# Sequence of Tyrosyl-DNA phosphodiesterase 2 (O95551 whole entry): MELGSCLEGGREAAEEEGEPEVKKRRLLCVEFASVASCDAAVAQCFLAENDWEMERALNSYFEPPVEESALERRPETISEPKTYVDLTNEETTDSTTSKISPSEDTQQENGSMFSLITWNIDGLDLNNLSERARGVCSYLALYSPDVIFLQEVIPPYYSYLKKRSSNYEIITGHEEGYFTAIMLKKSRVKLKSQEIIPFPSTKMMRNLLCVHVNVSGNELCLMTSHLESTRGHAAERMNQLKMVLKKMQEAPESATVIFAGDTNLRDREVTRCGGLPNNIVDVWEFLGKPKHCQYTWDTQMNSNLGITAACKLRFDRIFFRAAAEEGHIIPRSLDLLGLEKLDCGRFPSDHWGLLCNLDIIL
structure (smiles),measurement,setting,value
COC(=O)CCCC(=O)NC(C)c1cnn(-c2ccccc2C)c1C (stereo not drawn),IC50,[1],> 109000 nM (inactive)
same,IC50,[2],> 83300 nM (inactive)
Nc1nc(SCC(=O)N2CCCC2)nc(O)c1NC(=O)c1cccs1,IC50,[1],> 109000 nM (inactive)
same,IC50,[2],> 83200 nM (inactive)
O=c1[nH]c2ccccc2c2nc3ccccn3c12,IC50,[3],13800 nM (not active)
O=[N+]([O-])c1ccc2c([N+](=O)[O-])ccc3c2c1CC3,CC50,[4],> 40000 nM (active)
CN(C)c1n/c(=N/Cc2ccco2)ss1,EC50,[5],260 nM (active)
same,CC50,[6],23800 nM (active)
COc1ccccc1C#Cc1ccc([C@H]2[C@@H](C#N)N(C(=O)C3CCC3)[C@@H]2CO)cc1,AC50,[7],4980 nM (active)
same,AC50,[8],> 39000 nM (inactive)
COc1cccc(C#Cc2ccc([C@@H]3[C@@H](CO)N(C(=O)C4CCCCC4)[C@H]3C#N)cc2)c1,AC50,[9],2000 nM (active)
same,AC50,[10],24500 nM (active)
same,AC50,[7],2600 nM (active)
same,AC50,[11],1720 nM (active)
same,AC50,[8],> 39000 nM (inactive)
same,AC50,[12],2060 nM (active)
CCCSc1ccc2[nH]c(NC(=O)OC)nc2c1 [ALBENDAZOLE],IC50,[13],65.6 nM (active)
same,IC50,[14],> 20000 nM (inactive)
same,IC50,[15],165 nM (active)
same,IC50,[16],112 nM (active)
same,IC50,[17],> 20000 nM (inactive)
same,IC50,[18],502 nM (active)
same,IC50,[19],61.2 nM (active)
same,IC50,[20],> 20000 nM (inactive)
same,IC50,[21],108 nM (active)
same,IC50,[22],158 nM (active)
CCc1oc2ccccc2c1C(=O)c1cc(I)c(O)c(I)c1 [BENZIODARONE],IC50,[13],> 10000 nM (inactive)
same,IC50,[14],1 nM (active)
same,IC50,[15],3 nM (active)
same,IC50,[16],3 nM (active)
same,IC50,[17],1 nM (active)
same,IC50,[18],3 nM (active)
same,IC50,[19],> 10000 nM (inactive)
same,IC50,[20],1 nM (active)
same,IC50,[21],3 nM (active)
same,IC50,[22],1 nM (active)
COc1cc2c(cc1O)[C@@H]1Cc3ccc(OC)c(O)c3CN1CC2 [SCOULERINE],IC50,[23],16300 nM (active)
same,IC50,[24],> 128000 nM (inactive)

# From ChEMBL document CHEMBL1201862, “PubChem BioAssay data set” (2004)
